Assay results reported in patent US9718840B2, “Condensed 5-oxazolidinone derivative” (SUMITOMO DAINIPPON PHARMA CO., LTD., priority 2014, dated 2017).
Where two headings read alike, the source gives them in different places.

What was measured:
[1] = Ester metabolism stability test: stability in human liver; type: in vitro ADME; settings: 37° C., 20 minutes, with NADPH
Description: A reaction solution containing 5 μL of human liver S9 (manufactured by Sekisui XenoTech, LLC, 20 mg/mL) mixed with 20 μL of 500 mmol/L Kpi (pH 7.4), 40 μL of a 5 mmol/L aqueous solution of NADPH (manufactured by Oriental Yeast Co., Ltd.), and 133 μL of ion-exchange water was added to 2 μL of a DMSO solution containing a 100 μmol/L test substance, and the mixture was incubated at 37° C. for 20 minutes. After the incubation, the metabolic reaction was terminated by the addition of 600 μL of acetonitrile.

human plasma = assay: Ester metabolism stability test: stability in human plasma; type: in vitro ADME; settings: 37° C., 20 minutes
Description: 198 μL of human plasma (manufactured by Cosmo Bio Inc.) was added to 2 μL of a DMSO solution containing a 100 μmol/L test substance, and the mixture was incubated at 37° C. for 20 minutes. After the incubation, the metabolic reaction was terminated by the addition of 600 μL of acetonitrile.

[2] = Ester metabolism stability test: metabolite identification by LC-MS
Description: The metabolites were identified using LC (LC-Nexera X2 manufactured by Shimadzu Corp.)-MS (API4000 manufactured by AB Sciex Pte Ltd.).

Human FXIa = Human FXIa (Homo sapiens, UniProt P03951); assay: In vitro activated factor XI (FXIa) inhibition test; type: biochemical; parameters: purchased Enzyme Research Laboratories
[3] = tested on: Rabbit venous thrombus models; assay: In vivo antithrombotic effect evaluation test using rabbit (arteriovenous shunt); settings: prompt i.v. + continuous i.v.
Description: Rabbit venous thrombus models were prepared by a modification of the report of Wong et al. (Wong P C. et al., J. Pharmacol. Exp. Ther. 292: 351-357 (2000)). Male rabbits (JW, 2 to 4 kg) were anesthetized by the inhalation of isoflurane (ISOFLU®, manufactured by DS Pharma Animal Health Co., Ltd.) (introduced anesthesia: 4%, continuous anesthesia: 1.5 to 2.5%). A tracheostomy tube was inserted to each rabbit, which was then ventilated using a respirator. For the intravenous administration of a test drug and blood collection, catheters were inserted to the right femoral vein and the right femoral artery, respectively. An arteriovenous shunt filled with saline was inserted to the carotid artery and the jugular vein. The arteriovenous shunt was prepared by connecting Atom extension tubes (4Fr) having lengths of 15 cm and 13 cm to the artery side and the vein side, respectively, of a polyethylene tube (length: 60 cm, outside diameter: 11.1 mm, inside diameter: 7.9 mm). Also, 4-0 silk thread having a length of 5 cm was indwelled in the arteriovenous shunt. Blood was sent for 30 minutes from the carotid artery to the jugular vein via the arteriovenous shunt. The shunt was removed, and the weight of the silk thread covered with thrombus was measured. The weight of the silk thread measured before the experiment was subtracted from the measured weight, and the obtained value was used as a wet thrombus weight. One hour before the open of the arteriovenous shunt, the test drug or a vehicle was promptly intravenously administered (0.67 mL/kg) and then continuously intravenously administered (1 mL/kg/hr). The continuous injection was continued throughout the experiment. Further, an existing anticoagulant dabigatran (antithrombin drug) and rivaroxaban (FXa inhibitor) were tested as control drugs.
In order to measure aPTT of blood samples as an index for the intrinsic coagulation pathway, blood was collected before administration and immediately before cessation of blood flow, and plasma was prepared using 3.2% sodium citrate. After incubation at 37° C. for 6 minutes, an STA reagent Cephascreen (for aPTT assay; manufactured by Roche Diagnostics K.K.) was added in an amount equal thereto, and the mixture was further incubated for 4 minutes. STA calcium chloride (manufactured by Roche Diagnostics K.K.) was added in an amount equal thereto, and the time required for coagulation was measured.
In order to measure prothrombin time (PT) of blood samples as an index for the extrinsic coagulation pathway, blood was collected before administration and immediately before cessation of blood flow, and plasma was prepared using 3.2% sodium citrate. After incubation at 37° C. for 10 minutes, Neoplastin Plus (for PT assay; manufactured by Roche Diagnostics K.K.) was added in a double amount, and the time required for coagulation was measured.

[4] = tested on: Rabbit nail bleeding models; assay: Bleeding time evaluation test using rabbit nail bleeding model; type: in vivo; settings: for Bleeding time: Experiment 1 (maximum 30 minutes), rabbit; for Bleeding time (fold-increase): Experiment 1, ratio to vehicle group average
Description: Rabbit nail bleeding models were prepared by a modification of the report of Wong et al. (Wong P C. et al., J. Thromb. Haemost. 7: 1313-1320 (2009)). Male rabbits (JW, 1.5 to 3.5 kg) were anesthetized by the inhalation of isoflurane (ISOFLU®, manufactured by DS Pharma Animal Health Co., Ltd.) (introduced anesthesia: 4%, continuous anesthesia: 2 to 3%).
For the intravenous administration of a test drug or a vehicle, an indwelling needle was inserted to the auricular vein, and the test drug or the vehicle was promptly intravenously administered (0.67 mL/kg) and then continuously intravenously administered (1 mL/kg/hr). One hour after the start of administration, three posterior toenails were cut and dipped in saline heated to approximately 37° C., and the bleeding time was measured. The bleeding time was defined as a time from the cutting to the arrest of bleeding, and an average value from the three nails was used. The measurement time was 30 minutes at the maximum for experiment 1 and 60 minutes at the maximum for experiment 2. In each experiment, if bleeding for 30 minutes or 60 minutes or longer was confirmed, the bleeding time was regarded as 30 minutes or 60 minutes.

[5] = substrate S-2366, 37° C., 10 minutes, read-out: FXIa Inhibition activity IC50
[6] = metabolites identified using LC-MS
[7] = dose 0.01 + 0.015 mg/kg + mg/kg/h
[8] = dose 0.03 + 0.045 mg/kg + mg/kg/h
[9] = dose 0.1 + 0.15 mg/kg + mg/kg/h
[10] = dose 0.03 + 0.045 mg/kg + mg/kg/h i.v.
[11] = dose 0.1 + 0.15 mg/kg + mg/kg/h i.v.
[12] = dose 0.3 + 0.45 mg/kg + mg/kg/h i.v.

Sequence of Human FXIa (P03951 388-625 limits assumed): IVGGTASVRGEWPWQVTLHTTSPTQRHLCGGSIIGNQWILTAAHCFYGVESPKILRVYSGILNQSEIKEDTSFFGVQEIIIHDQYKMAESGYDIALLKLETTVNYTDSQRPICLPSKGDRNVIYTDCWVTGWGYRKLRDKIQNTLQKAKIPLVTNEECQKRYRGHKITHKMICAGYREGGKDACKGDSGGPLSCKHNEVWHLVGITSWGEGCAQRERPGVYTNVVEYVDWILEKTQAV
Sequence of Human FXIa (P03951 19-387 partner limits assumed): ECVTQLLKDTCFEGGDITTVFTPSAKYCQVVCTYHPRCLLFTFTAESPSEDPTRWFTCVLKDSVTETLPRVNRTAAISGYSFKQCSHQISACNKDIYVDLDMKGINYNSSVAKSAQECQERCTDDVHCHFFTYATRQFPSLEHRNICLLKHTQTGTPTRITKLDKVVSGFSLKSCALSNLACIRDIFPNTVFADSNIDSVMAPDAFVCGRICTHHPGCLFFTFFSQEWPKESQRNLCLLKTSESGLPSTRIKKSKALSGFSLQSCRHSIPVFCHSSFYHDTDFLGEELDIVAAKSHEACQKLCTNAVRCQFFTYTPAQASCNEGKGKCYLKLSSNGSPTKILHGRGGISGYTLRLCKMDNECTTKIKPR

Structure (SMILES): CO[C@H]1CC[C@H]([C@@H]2CCN(C(=O)[C@H]3CC[C@H]([C@H](N)CF)CC3)[C@@H]2C(=O)Nc2ccc3c(c2)cc2n3C(CF)(CF)OC2=O)CC1 [Example 13, (3S)-1-({trans-4-[(1S)-1-amino-2-fluoroethyl]cyclohexyl}carbonyl)-N-[3,3-bis(fluoromethyl)-1-oxo-1H-[1,3]oxazolo[3,4-a]indol-7-yl]-3-(trans-4-methoxycyclohexyl)-L-prolinamide]
- Residual rate (%) Human liver S9 [1]: 69%
- Residual rate (%) Human plasma (human plasma): 21%
- Metabolite formed (conversion by metabolism) ([2]; human, 20 min, 1 μmol/L): converted to the compound of Example 24

Structure (SMILES): N[C@H](CF)[C@H]1CC[C@H](C(=O)N2CC[C@@H](N3CCCCC3)[C@H]2C(=O)Nc2ccc3[nH]c(C(=O)O)cc3c2)CC1 [Example 25, 5-[(2S,3R)-1-({trans-4-[(1S)-1-Amino-2-fluoroethyl]cyclohexyl}carbonyl)-3-(piperidin-1-yl)pyrrolidine-2-carboxamide]-1H-indole-2-carboxylic acid 2-trifluoroacetate]
- IC50 (Human FXIa; [5]): 19 nM

Structure (SMILES): Cc1c(C(=O)O)[nH]c2ccc(NC(=O)[C@@H]3[C@H](C4CCCCC4)CCN3C(=O)[C@H]3CC[C@H]([C@H](N)CF)CC3)cc12 [compound 39]
- IC50 (Human FXIa; [5]): 145 nM

Structure (SMILES): NC[C@H]1CC[C@H](C(=O)N2CC[C@@H](C3CCCCC3)[C@H]2C(=O)Nc2ccc3[nH]c(C(=O)O)cc3c2)CC1 [Example 23]
- IC50 (Human FXIa; [5]): 3 nM

Structure (SMILES): CC1(C)OC(=O)c2cc3cc(NC(=O)[C@@H]4[C@H](N5CCCCC5)CCN4C(=O)[C@H]4CC[C@H]([C@H](N)CF)CC4)ccc3n21 [Example 15, (2S,3R)-1-({trans-4-[(1S)-1-Amino-2-fluoroethyl]cyclohexyl}carbonyl)-N-(3,3-dimethyl-1-oxo-1H-[1,3]oxazolo[3,4-a]indol-7-yl)-3-(piperidin-1-yl)pyrrolidine-2-carboxamide 2-trifluoroacetate]
- Residual rate (%) Human liver S9 [1]: 82%
- Residual rate (%) Human plasma (human plasma): 14%
- Metabolite formed (conversion by metabolism) ([2]; human, 20 min, 1 μmol/L): Example 25

Structure (SMILES): CO[C@H]1CC[C@H]([C@@H]2CCN(C(=O)[C@H]3CC[C@H]([C@H](N)CF)CC3)[C@@H]2C(=O)Nc2ccc3c(c2)cc2n3C3(CCC3)OC2=O)CC1 [Example 14, (3S)-1-({trans-4-[(1S)-1-amino-2-fluoroethyl]cyclohexyl}carbonyl)-3-(trans-4-methoxycyclohexyl)-N-(1′-oxo-1′H-spiro[cyclobutane-1,3′-[1,3]oxazolo[3,4-a]indol]-7′-yl)-L-prolinamide]
- Residual rate (%) Human liver S9 [1]: 47%
- Residual rate (%) Human plasma (human plasma): <1%
- Metabolite formed (conversion by metabolism) ([2]; human, 20 min, 1 μmol/L): converted to the compound of Example 24

Structure (SMILES): CCc1c(C(=O)O)[nH]c2ccc(NC(=O)[C@@H]3[C@H](C4CCCCC4)CCN3C(=O)[C@H]3CC[C@H]([C@H](N)CF)CC3)cc12 [Reference Example 42]
- IC50 (Human FXIa; [5]): 91 nM

Structure (SMILES): NC(CF)[C@H]1CC[C@H](C(=O)N2CC[C@@H](C3CCCCC3)[C@H]2C(=O)Nc2ccc3[nH]c(C(=O)O)c(F)c3c2)CC1 (some centres unmarked) [Reference Example 36]
- IC50 (Human FXIa; [5]): 45 nM

Structure (SMILES): CO[C@H]1CC[C@H]([C@@H]2CCN(C(=O)[C@H]3CC[C@H]([C@H](N)CF)CC3)[C@@H]2C(=O)Nc2ccc3c(c2)cc2n3C(C)(C)OC2=O)CC1.Cl [Example 10, (3S)-1-({trans-4-[(1S)-1-amino-2-fluoroethyl]cyclohexyl}carbonyl)-N-(3,3-dimethyl-1-oxo-1H-[1,3]oxazolo[3,4-a]indol-7-yl)-3-(trans-4-methoxycyclohexyl)-L-prolinamide hydrochloride]
- Residual rate (%) Human liver S9 [1]: 98%
- Residual rate (%) Human plasma (human plasma): 6.7%
- Metabolite formed (conversion by metabolism) [2, 6]: converted to the compound of Example 24

Structure (SMILES): CCCCCCOC(=O)NC(=N)c1ccc(NCc2nc3cc(C(=O)N(CCC(=O)OCC)c4ccccn4)ccc3n2C)cc1 [Dabigatran etexilate]
- PT (ratio) [3, 7]: 1.07 ± 0.02 ratio
- Thrombus weight [3, 7]: 62 ± 18 mg
- aPTT (ratio) [3, 7]: 1.28 ± 0.07 ratio
- PT (ratio) [3, 8]: 1.23 ± 0.10 ratio
- Thrombus weight [3, 8]: 32 ± 9 mg
- aPTT (ratio) [3, 8]: 1.58 ± 0.15 ratio
- PT (ratio) [3, 9]: 2.29 ± 0.29 ratio
- Thrombus weight [3, 9]: 12 ± 4 mg
- aPTT (ratio) [3, 9]: 2.34 ± 0.12 ratio
- Bleeding time [4, 10]: 1276 ± 353 s
- Bleeding time [4, 11]: 1800 ± 0 s
- Bleeding time [4, 12]: 1800 ± 0 s
- Bleeding time (fold-increase) [4, 10]: 2.7 ± 0.7 fold-increase
- Bleeding time (fold-increase) [4, 11]: 3.8 ± 0.0 fold-increase
- Bleeding time (fold-increase) [4, 12]: 3.8 ± 0.0 fold-increase

Structure (SMILES): NC(CF)[C@H]1CC[C@H](C(=O)N2CC[C@@H](c3ccc(F)cc3)[C@H]2C(=O)Nc2ccc3[nH]c(C(=O)O)cc3c2)CC1 (some centres unmarked) [compound 38]
- IC50 (Human FXIa; [5]): 30 nM

Structure (SMILES): COc1ccc([C@H]2CCN(C(=O)[C@H]3CC[C@H]([C@H](N)CF)CC3)[C@@H]2C(=O)Nc2ccc3[nH]c(C(=O)O)cc3c2)cc1 [compound 43]
- IC50 (Human FXIa; [5]): 76 nM

Structure (SMILES): N[C@H](CF)[C@H]1CC[C@H](C(=O)N2CC[C@H](c3ccc(F)cc3)[C@H]2C(=O)Nc2ccc3[nH]c(C(=O)O)cc3c2)CC1 [compound 44]
- IC50 (Human FXIa; [5]): 33 nM

Structure (SMILES): CC1(C)OC(=O)c2cc3cc(NC(=O)[C@@H]4[C@H](c5ccccc5)CCN4C(=O)[C@H]4CC[C@H]([C@H](N)CF)CC4)ccc3n21.Cl [Example 19, (3S)-1-({trans-4-[(1S)-1-amino-2-fluoroethyl]cyclohexyl}carbonyl)-N-(3,3-dimethyl-1-oxo-1H-[1,3]oxazolo[3,4-a]indol-7-yl)-3-phenyl-L-prolinamide]
- Residual rate (%) Human liver S9 [1]: 93%
- Residual rate (%) Human plasma (human plasma): 15%
- Metabolite formed (conversion by metabolism) [2, 6]: Reference Example 19-1

Structure (SMILES): NC[C@H]1CC[C@H](C(=O)N2CC[C@@H](c3ccccc3)[C@H]2C(=O)Nc2ccc3[nH]c(C(=O)O)cc3c2)CC1 [compound 40]
- IC50 (Human FXIa; [5]): 9 nM

Structure (SMILES): N[C@H](CF)[C@H]1CC[C@H](C(=O)N2CC[C@H](c3ccccc3)[C@H]2C(=O)Nc2ccc3[nH]c(C(=O)O)c(Cl)c3c2)CC1 [compound 45]
- IC50 (Human FXIa; [5]): 60 nM

Structure (SMILES): N[C@H](CF)[C@H]1CC[C@H](C(=O)N2CC[C@@H](C3CCCCC3)[C@H]2C(=O)Nc2ccc3[nH]c(C(=O)O)c(Cl)c3c2)CC1 [compound 37]
- IC50 (Human FXIa): 18 nM
